In patent US9855538B2, “Ultrasonic method and apparatus for producing particles having a controlled size distribution” (The Board of Trustees of the University of Illinois, priority 2013, dated 2018):

Key:
[1] = Particle size and morphology of drug particles from antisolvent sonocrystallization (optical microscope, SEM, dynamic light scattering); assay type: physicochemical
Source text: The application of ultrasound to the induction of nucleation of drug crystals is presented in the following examples. The apparatus shown in FIG. 1 was employed for all of the experiments, using a titanium-aluminum alloy flow-through ultrasonic horn (Sonics & Materials VCX750) having a resonance frequency of 20 kHz, a 1 cm^2 tip and an outlet diameter of 4 mm. Horn intensities were calibrated by calorimetry with water. A crystallization tube having an outer diameter (OD) of 13 mm was used in each experiment. Each has different solubility characteristics and consequently its own solvent/antisolvent system. Fine particles of several drug materials, including aspirin (acetylsalicylic acid), acetaminophen (also called paracetamol, the active ingredient in Tylenol), and folic acid (vitamin B9), were prepared by antisolvent sonocrystallization.
Particles were imaged using a Canon PC1015 digital camera attached to a Zeiss Axioskop optical/fluorescence microscope with polarization analyzer or with a Hitachi 4700 SEM. Particle size distributions were measured by dynamic light scattering when possible.

[2] = Solubility of the drug in solvent / antisolvent; assay type: physicochemical
Source text: The solute employed in the process may be any material for which a suitable solvent and antisolvent may be found. The suitability of a solvent/antisolvent system may be evaluated by comparing the solubility of the solute in the solvent with the solubility of the solute in the antisolvent. For example, the solute may have a first solubility in the solvent and a second solubility in the antisolvent, where a ratio of the first solubility to the second solubility is at least about 10:1, or at least about 100:1. A higher ratio may permit a higher particle yield to be achieved for a given concentration of solute in the solvent. Accordingly, the ratio may also be at least about 200:1 or at least about 400:1, but is typically no higher than about 800:1. As would be recognized by one of ordinary skill in the art, the solubility of solute in a given solvent may be represented in terms of milligrams of solute per milliliter of the solvent (mg/mL), and may be determined by HPLC or gravimetric analysis.

Nc1nc2ncc(CNc3ccc(C(=O)N[C@@H](CCC(=O)O)C(=O)O)cc3)nc2c(=O)[nH]1 [Folic acid, folic acid]
crystal diameter ([1]; 20% aqueous ammonium hydroxide solvent, acetone antisolvent, by SEM (FIGS. 8A-8B)): about 100 nm
particle morphology (optical microscope) ([1]; saturated sodium bicarbonate solution, H2SO4 antisolvent, FIGS. 7C-7D): large needles
particle size (optical microscope) ([1]; saturated sodium bicarbonate solution, HCl antisolvent, FIGS. 7A-7B): too small to resolve optically
solubility in acetone ([2]; acetone): negligible
solubility in base ([2]; base (as the folate ion)): dissolves readily
solubility in water ([2]; neutral to moderately acidic water): very nearly insoluble
solubility in water ([2]; very low pH): quite soluble

CC(=O)Nc1ccc(O)cc1 [acetaminophen]
Resultant particle morphology ([1]; antisolvent sonocrystallization, 20 kHz, 15 W, solvent/antisolvent per experiment (Tables 1, 2)): platelike
crystal length in the largest dimension ([1]; ethanol solution, hexanes as antisolvent, FIGS. 6A and 6B): a few

CC(=O)Oc1ccccc1C(=O)O [aspirin, acetylsalicylic acid]
concentration of saturated ethanol solution ([2]; ethanol): about 400 mg/mL
